Measurements: ChEMBL document CHEMBL5058642, “Data for DCP probe TP-051” (2022)
Values belong to the molecule of their own block, whether it stands above or below them.

Experiments:
[1] = molecular target: Polyunsaturated fatty acid 5-lipoxygenase (Homo sapiens) (UniProt P09917); experiment: Lipoxygenase 5-LO Eurofins-Panlabs enzyme assay; settings: Compound concentration 10.0 uM
[2] = molecular target: 5-hydroxytryptamine receptor 2C (Homo sapiens) (UniProt P28335); settings: Compound concentration 10.0 uM
Rattus norvegicus [3] = organism: Rattus norvegicus; experiment: Protein Serine/Threonine Kinase, PKC, Non-Selective Eurofins-Panlabs enzyme assay; settings: Compound concentration 10.0 uM
[4] = molecular target: Mitogen-activated protein kinase 3 (Homo sapiens) (UniProt P27361); experiment: Inhibition of Protein Serine/Threonine Kinase, MAPK3 (ERK1) at 10 µM in the Eurofins-Panlabs enzyme assay (Eurofins_assay_171000); settings: Compound concentration 10.0 uM
[5] = molecular target: Epidermal growth factor receptor (Homo sapiens) (UniProt P00533); experiment: Protein Tyrosine Kinase, EGF Receptor Eurofins-Panlabs enzyme assay; parameters: substrate with concentration 10 µg/mL Poly(Glu:Tyr), incubation time 60 min, incubation temperature 25 °C; settings: Compound concentration 10.0 uM
[6] = molecular target: 5-hydroxytryptamine receptor 7 (Homo sapiens) (UniProt P34969); settings: Compound concentration 10.0 uM
[7] = molecular target: Matrilysin (Homo sapiens) (UniProt P09237); experiment: Peptidase, Matrix Metalloproteinase-7 (MMP-7) Eurofins-Panlabs enzyme assay; parameters: substrate with concentration; settings: Compound concentration 10.0 uM
[8] = molecular target: Alpha-1B adrenergic receptor (Homo sapiens) (UniProt P35368); settings: Compound concentration 10.0 uM
[9] = molecular target: Sodium-dependent dopamine transporter (Homo sapiens, UniProt Q01959); experiment: GPCRScan assay: inhibition of DAT; parameters: radioligand conc. used [nm] 3.6 – 16.0, parental cells stable HEK
[10] = molecular target: Carbonic anhydrase (Homo sapiens) (UniProt P00918+P43166+P00915+P07451+P23280+O43570+Q9ULX7+Q16790+P22748+Q8N1Q1+Q9Y2D0+P35218); experiment: Carbonic Anhydrase Eurofins-Panlabs enzyme assay; assay type: protein assay; settings: Compound concentration 10.0 uM
Rattus norvegicus [11] = organism: Rattus norvegicus; settings: Compound concentration 10.0 uM
[12] = molecular target: Alpha-1D adrenergic receptor (Homo sapiens, UniProt P25100); experiment: GPCRScan assay: inhibition of Alpha1D; parameters: radioligand conc. used [nm] 0.3 – 1.0, parental cells stable
[13] = molecular target: Thromboxane-A synthase (Homo sapiens) (UniProt P24557); experiment: Thromboxane Synthase Eurofins-Panlabs enzyme assay; settings: Compound concentration 10.0 uM
[14] = molecular target: Cyclin-dependent kinase 1/cyclin B (Homo sapiens) (UniProt P06493+P14635+Q8WWL7+O95067); experiment: Protein Serine/Threonine Kinase, cdk1/Cyclin B Eurofins-Panlabs enzyme assay; assay type: protein-complex assay; settings: Compound concentration 10.0 uM
[15] = molecular target: Steroid 5-alpha-reductase (Rattus norvegicus) (UniProt P24008+P31214); experiment: Steroid 5α-Reductase Eurofins-Panlabs enzyme assay; assay type: protein assay; parameters: substrate with concentration; settings: Compound concentration 10.0 uM
[16] = molecular target: Disintegrin and metalloproteinase domain-containing protein 17 (Homo sapiens) (UniProt P78536); experiment: Peptidase, Tumor Necrosis Factor-alpha Converting Enzyme (TACE) Eurofins-Panlabs enzyme assay; parameters: substrate with concentration; settings: Compound concentration 10.0 uM
Bos taurus [17] = organism: Bos taurus; experiment: Protein Serine/Threonine Kinase, PKA, Non-Selective Eurofins-Panlabs enzyme assay; assay type: protein-complex assay; parameters: substrate with concentration 370 µg/mL Histone Type III-S, incubation time 15 min, incubation temperature 25 °C; settings: Compound concentration 10.0 uM
D(3) dopamine receptor = D(3) dopamine receptor (Homo sapiens, UniProt P35462); experiment: GPCRScan assay: inhibition of D3; parameters: radioligand conc. used [nm] 0.5 – 1.8, parental cells HEKT
[18] = molecular target: RAC-alpha serine/threonine-protein kinase (Homo sapiens) (UniProt P31749); experiment: Protein Serine/Threonine Kinase, PKBα/Akt1 Eurofins-Panlabs enzyme assay; settings: Compound concentration 10.0 uM
[19] = molecular target: Neuromedin-K receptor (Homo sapiens) (UniProt P29371); experiment: (§1) Tachykinin NK3 Eurofins-Panlabs radioligand binding assay; settings: Compound concentration 10.0 uM
[20] = molecular target: Sodium-dependent noradrenaline transporter (Homo sapiens) (UniProt P23975); settings: Compound concentration 10.0 uM
[21] = molecular target: T1, Muscarinic acetylcholine receptor M2 (Homo sapiens) (UniProt P08172); settings: Compound concentration 10.0 uM
T1 sequence (whole entry): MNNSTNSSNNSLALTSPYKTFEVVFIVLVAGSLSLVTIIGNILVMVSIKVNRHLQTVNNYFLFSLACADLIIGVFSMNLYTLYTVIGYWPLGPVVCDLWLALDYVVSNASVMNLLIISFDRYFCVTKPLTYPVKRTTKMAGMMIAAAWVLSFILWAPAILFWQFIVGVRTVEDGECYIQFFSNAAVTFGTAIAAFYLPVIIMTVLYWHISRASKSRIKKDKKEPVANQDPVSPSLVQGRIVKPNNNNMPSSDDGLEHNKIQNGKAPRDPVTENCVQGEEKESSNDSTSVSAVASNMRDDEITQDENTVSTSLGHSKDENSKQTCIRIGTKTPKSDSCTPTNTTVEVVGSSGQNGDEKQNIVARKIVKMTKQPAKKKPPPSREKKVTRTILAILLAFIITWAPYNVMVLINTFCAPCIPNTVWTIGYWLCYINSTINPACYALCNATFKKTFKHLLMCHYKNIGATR

[22] = molecular target: Neprilysin (Homo sapiens) (UniProt P08473); experiment: Peptidase, Metalloproteinase, Neutral Endopeptidase Eurofins-Panlabs enzyme assay; settings: Compound concentration 10.0 uM
[23] = molecular target: Matrix metalloproteinase-14 (Homo sapiens) (UniProt P50281); experiment: Peptidase, Matrix Metalloproteinase-14 (MMP-14) Eurofins-Panlabs enzyme assay; parameters: substrate with concentration; settings: Compound concentration 10.0 uM
Canis lupus familiaris = organism: Canis lupus familiaris; experiment: ATPase, Na+/K+ Eurofins-Panlabs enzyme assay; settings: Compound concentration 10.0 uM
[24] = molecular target: Glycogen synthase kinase-3 beta (Homo sapiens) (UniProt P49841); experiment: Protein Serine/Threonine Kinase, GSK-3β Eurofins-Panlabs enzyme assay; parameters: substrate with concentration; settings: Compound concentration 10.0 uM
[25] = molecular target: Prostaglandin G/H synthase 2 (Homo sapiens) (UniProt P35354); experiment: Inhibition of Cyclooxygenase COX-2 at compound concentration of 10.0 uM in the Eurofins-Panlabs enzyme assay (Eurofins_assay_118010); parameters: substrate with concentration 0.3 uM Arachidonic acid, incubation time 15 min, incubation temperature 37 C; settings: Compound concentration 10.0 uM
MAO-B = MAO-B (Homo sapiens, UniProt P27338); experiment: Inhibition of Monoamine Oxidase MAO-B at compound concentration of 10.0 uM in the Eurofins-Panlabs enzyme assay (Eurofins_assay_140120); parameters: substrate with concentration 50 uM Kynuramine, incubation time 60 min, incubation temperature 37 C; settings: recombinant human MAO-B expressed in insect Hi5 cells, probe Kynuramine, 50 uM, compound concentration 10 uM
[26] = molecular target: cGMP-specific 3',5'-cyclic phosphodiesterase (Homo sapiens) (UniProt O76074); settings: Compound concentration 10.0 uM
[27] = molecular target: Prostaglandin G/H synthase 1 (Homo sapiens) (UniProt P23219); experiment: Inhibition of Cyclooxygenase COX-1 at compound concentration of 10.0 uM in the Eurofins-Panlabs enzyme assay (Eurofins_assay_116020); settings: Compound concentration 10.0 uM
[28] = molecular target: Sodium-dependent serotonin transporter (Homo sapiens) (UniProt P31645); experiment: Transporter, Serotonin (5- Hydroxytryptamine) (SERT) Eurofins-Panlabs radioligand binding assay; parameters: ligand concentration 0.15 nM, non-specific ligand with concentration 10 µM Imipramine, incubation time 3 h, incubation temperature 4 °C; settings: Compound concentration 10.0 uM
Bos taurus [29] = organism: Bos taurus; experiment: Phosphodiesterase PDE6 Eurofins-Panlabs enzyme assay; parameters: substrate with concentration [3H] cGMP + cGMP, incubation time 20 min, incubation temperature 25 °C; settings: Compound concentration 10.0 uM
Rattus norvegicus [30] = organism: Rattus norvegicus; experiment: Serotonin (5-Hydroxytryptamine) 5-HT2, Non-Selective Eurofins-Panlabs radioligand binding assay; assay type: protein assay; settings: Compound concentration 10.0 uM
[31] = molecular target: Neuromedin-K receptor (Homo sapiens) (UniProt P29371); experiment: as §1; parameters: ligand concentration 0.8 nM; settings: Compound concentration 10.0 uM
[32] = molecular target: C5a anaphylatoxin chemotactic receptor 1 (Homo sapiens) (UniProt P21730); experiment: Anaphylatoxin C5a Eurofins-Panlabs radioligand binding assay; settings: Compound concentration 10.0 uM
Homo sapiens = organism: Homo sapiens; experiment: Inhibition of Nicotinic Acetylcholine at compound concentration of 10.0 uM in the Eurofins-Panlabs radioligand binding assay (Eurofins_assay_258590); assay type: protein-complex assay; settings: Compound concentration 10.0 uM
[33] = molecular target: Delta-type opioid receptor (Homo sapiens) (UniProt P41143); settings: Compound concentration 10.0 uM

Chain of Sodium-dependent dopamine transporter (Q01959 whole entry): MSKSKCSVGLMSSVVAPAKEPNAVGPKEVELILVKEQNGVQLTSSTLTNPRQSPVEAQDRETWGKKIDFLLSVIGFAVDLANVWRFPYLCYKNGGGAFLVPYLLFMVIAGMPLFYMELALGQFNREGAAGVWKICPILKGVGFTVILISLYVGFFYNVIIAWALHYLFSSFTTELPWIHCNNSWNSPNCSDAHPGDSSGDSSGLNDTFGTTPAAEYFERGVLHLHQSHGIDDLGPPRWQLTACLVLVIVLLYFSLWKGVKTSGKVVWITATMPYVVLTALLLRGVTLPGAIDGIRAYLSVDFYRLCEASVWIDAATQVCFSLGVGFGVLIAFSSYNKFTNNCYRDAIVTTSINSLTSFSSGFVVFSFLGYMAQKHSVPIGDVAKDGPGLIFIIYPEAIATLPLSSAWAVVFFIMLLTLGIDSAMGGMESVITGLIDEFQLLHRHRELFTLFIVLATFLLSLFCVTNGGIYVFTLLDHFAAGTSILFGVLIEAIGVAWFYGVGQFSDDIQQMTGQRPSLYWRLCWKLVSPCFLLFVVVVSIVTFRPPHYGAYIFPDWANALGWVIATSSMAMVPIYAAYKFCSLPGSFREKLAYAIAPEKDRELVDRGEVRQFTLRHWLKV
Chain of Neuromedin-K receptor (Homo sapiens) (P29371 whole entry): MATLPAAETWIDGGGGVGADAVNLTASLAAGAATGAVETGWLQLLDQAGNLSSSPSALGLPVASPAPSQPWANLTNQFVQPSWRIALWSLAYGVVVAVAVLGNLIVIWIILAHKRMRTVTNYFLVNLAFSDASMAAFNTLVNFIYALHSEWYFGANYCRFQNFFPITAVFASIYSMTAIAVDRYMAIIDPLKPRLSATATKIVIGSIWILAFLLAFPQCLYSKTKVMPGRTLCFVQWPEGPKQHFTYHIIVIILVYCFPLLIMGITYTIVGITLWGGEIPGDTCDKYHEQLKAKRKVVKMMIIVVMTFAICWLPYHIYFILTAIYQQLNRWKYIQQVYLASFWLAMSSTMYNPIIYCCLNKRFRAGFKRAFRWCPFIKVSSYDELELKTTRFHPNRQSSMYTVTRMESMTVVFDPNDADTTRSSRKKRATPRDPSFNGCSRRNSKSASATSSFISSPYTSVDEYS
Chain of MAO-B (P27338 whole entry): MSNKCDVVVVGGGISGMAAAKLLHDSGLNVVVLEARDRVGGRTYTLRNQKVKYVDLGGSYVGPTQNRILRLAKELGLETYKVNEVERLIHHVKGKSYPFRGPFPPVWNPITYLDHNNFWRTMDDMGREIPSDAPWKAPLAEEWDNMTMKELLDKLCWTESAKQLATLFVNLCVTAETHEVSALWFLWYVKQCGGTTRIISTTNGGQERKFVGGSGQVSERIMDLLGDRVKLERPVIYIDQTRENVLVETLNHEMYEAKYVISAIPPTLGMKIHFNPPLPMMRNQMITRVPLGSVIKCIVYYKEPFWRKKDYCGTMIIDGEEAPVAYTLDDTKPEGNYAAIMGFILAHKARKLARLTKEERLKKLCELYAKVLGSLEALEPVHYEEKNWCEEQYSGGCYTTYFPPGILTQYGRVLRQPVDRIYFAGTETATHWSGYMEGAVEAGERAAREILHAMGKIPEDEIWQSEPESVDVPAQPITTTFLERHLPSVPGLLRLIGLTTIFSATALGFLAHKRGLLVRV
Chain of Polyunsaturated fatty acid 5-lipoxygenase (Homo sapiens) (P09917 whole entry): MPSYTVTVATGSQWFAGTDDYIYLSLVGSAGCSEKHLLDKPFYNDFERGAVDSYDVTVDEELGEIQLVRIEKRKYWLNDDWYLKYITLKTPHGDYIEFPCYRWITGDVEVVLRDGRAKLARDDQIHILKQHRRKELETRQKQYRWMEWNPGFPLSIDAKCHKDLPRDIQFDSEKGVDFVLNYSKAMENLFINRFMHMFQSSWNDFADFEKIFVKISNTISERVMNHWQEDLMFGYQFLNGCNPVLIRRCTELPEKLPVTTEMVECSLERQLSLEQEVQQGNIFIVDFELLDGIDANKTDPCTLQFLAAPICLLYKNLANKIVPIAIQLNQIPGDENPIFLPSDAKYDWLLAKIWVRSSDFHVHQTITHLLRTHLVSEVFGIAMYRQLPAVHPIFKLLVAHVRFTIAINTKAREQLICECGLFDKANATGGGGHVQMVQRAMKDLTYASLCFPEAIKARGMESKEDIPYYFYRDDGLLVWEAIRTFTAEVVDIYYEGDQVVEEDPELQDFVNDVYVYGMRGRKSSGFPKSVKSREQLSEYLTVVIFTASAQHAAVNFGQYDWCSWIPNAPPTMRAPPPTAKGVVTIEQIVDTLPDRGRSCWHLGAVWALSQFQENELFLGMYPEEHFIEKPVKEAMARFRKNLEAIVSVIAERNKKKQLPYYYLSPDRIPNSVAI
Chain of RAC-alpha serine/threonine-protein kinase (Homo sapiens) (P31749 whole entry): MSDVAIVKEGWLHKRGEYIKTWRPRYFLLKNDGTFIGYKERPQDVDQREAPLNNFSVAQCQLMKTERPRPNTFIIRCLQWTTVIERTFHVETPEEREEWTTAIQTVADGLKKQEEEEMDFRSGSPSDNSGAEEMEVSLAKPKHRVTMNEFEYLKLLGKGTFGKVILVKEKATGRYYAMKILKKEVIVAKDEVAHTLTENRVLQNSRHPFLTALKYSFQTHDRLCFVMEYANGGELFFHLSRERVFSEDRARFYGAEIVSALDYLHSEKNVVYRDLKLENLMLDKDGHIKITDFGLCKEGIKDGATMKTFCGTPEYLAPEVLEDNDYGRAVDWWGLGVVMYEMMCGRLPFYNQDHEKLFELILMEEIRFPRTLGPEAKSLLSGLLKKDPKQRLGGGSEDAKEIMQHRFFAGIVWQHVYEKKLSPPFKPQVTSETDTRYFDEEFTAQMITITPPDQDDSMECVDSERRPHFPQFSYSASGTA
Chain of Mitogen-activated protein kinase 3 (Homo sapiens) (P27361 whole entry): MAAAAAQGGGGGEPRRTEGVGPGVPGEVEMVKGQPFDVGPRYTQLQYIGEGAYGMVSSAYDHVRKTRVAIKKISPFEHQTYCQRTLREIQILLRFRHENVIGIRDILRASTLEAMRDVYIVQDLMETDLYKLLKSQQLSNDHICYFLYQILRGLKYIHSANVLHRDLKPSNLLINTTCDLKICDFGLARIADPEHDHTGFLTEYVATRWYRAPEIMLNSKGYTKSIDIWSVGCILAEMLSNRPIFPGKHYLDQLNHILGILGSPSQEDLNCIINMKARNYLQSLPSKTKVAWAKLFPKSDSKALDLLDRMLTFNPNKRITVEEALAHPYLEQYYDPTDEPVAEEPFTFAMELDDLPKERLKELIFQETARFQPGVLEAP
Chain of Glycogen synthase kinase-3 beta (Homo sapiens) (P49841 whole entry, looked up): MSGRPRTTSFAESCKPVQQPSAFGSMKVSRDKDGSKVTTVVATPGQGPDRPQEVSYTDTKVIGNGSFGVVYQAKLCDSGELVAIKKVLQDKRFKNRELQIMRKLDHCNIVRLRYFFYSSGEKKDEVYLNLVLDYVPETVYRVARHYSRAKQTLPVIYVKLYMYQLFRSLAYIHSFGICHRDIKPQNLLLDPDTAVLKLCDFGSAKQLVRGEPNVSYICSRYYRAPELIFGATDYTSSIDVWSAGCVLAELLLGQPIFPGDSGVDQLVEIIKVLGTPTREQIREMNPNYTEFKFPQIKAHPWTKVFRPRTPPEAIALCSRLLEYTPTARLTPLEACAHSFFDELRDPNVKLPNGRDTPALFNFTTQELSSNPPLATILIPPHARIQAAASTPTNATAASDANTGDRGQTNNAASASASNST
Chain of Steroid 5-alpha-reductase (Rattus norvegicus) (P24008 whole entry, looked up, the tested form may be a part): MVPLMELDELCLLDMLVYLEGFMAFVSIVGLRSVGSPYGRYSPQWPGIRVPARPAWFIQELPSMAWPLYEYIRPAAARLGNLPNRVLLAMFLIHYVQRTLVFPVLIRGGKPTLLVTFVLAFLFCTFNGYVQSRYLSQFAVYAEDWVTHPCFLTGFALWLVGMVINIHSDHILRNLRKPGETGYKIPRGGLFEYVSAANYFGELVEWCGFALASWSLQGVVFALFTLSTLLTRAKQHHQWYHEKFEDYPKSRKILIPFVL
Chain of Steroid 5-alpha-reductase (Rattus norvegicus) (P31214 whole entry, looked up, the tested form may be a part): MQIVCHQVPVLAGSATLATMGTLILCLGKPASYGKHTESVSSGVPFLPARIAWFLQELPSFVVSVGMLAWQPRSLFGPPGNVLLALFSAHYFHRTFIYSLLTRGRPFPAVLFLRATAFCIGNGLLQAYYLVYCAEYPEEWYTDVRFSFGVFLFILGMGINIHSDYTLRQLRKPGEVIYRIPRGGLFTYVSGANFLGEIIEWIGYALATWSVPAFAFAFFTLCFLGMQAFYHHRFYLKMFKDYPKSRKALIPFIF
Chain of Thromboxane-A synthase (Homo sapiens) (P24557 whole entry): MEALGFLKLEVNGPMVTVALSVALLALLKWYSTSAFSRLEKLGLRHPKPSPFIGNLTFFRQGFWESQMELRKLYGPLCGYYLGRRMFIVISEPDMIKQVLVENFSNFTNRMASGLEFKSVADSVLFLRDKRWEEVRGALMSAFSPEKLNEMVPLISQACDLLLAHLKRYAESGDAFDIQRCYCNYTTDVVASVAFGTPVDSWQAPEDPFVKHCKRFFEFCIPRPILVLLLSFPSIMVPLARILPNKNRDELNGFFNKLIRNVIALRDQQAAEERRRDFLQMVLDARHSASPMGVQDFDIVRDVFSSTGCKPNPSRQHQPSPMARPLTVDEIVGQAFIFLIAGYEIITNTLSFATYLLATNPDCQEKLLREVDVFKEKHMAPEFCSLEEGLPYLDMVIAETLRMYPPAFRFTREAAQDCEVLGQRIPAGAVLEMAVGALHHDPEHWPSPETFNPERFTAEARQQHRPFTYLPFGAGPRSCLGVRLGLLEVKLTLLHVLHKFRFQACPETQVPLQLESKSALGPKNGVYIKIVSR
Chain of Matrilysin (Homo sapiens) (P09237 whole entry): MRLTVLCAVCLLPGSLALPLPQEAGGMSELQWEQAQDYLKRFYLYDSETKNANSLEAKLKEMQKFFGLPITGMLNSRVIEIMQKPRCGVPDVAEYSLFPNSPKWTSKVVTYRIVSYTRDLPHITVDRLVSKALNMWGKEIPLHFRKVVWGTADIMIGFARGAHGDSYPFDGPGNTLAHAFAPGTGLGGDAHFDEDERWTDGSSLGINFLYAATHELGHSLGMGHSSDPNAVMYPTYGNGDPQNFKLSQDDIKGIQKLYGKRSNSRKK

inhibition [1]: 85% | inhibition [2]: 14.1% | inhibition (Rattus norvegicus [3]): -8% | inhibition [4]: 30% | inhibition [5]: 61% | inhibition [6]: 2.66% | inhibition [7]: 1% | inhibition [8]: 0.86% | Ki [9]: > 10 µM | pKi [9]: < 5 | inhibition [10]: 27% | inhibition (Rattus norvegicus [11]): -0.04% | Ki [12]: 7.52 µM | inhibition [13]: 64% | inhibition [14]: 14% | inhibition [15]: 19% | inhibition (Bos taurus [17]): 5% | Ki (D(3) dopamine receptor): 0.925 µM | inhibition [18]: -1% | inhibition [19]: 30% | inhibition [20]: 19.1% | inhibition [21]: 2.31% | inhibition [22]: 4% | inhibition [23]: 3% | inhibition (Canis lupus familiaris): 4% | inhibition [24]: 19% | inhibition [25]: -5% | inhibition at 60 min, 10 µM (MAO-B): 6% (not active) | inhibition [26]: -6% | inhibition [27]: 14% | inhibition [28]: -5% | inhibition (Bos taurus [29]): 20%
Structure (SMILES): Cc1cc(OC2CCS(=O)(=O)CC2)cc(C)c1-c1cccc(COc2ccc(CCC(=O)O)c(F)c2)c1
inhibition [16]: 36%

Structure (SMILES): Cc1cc(OC2CCS(=O)(=O)CC2)cc(C)c1-c1cccc(COc2ccc(C(=O)O)c(F)c2)c1
inhibition (Rattus norvegicus [30]): -3% | inhibition [31]: 10% | inhibition [32]: -1% | inhibition (Homo sapiens): -5% | inhibition [33]: -7.07%
